Measurements: US20250059182A1, “SOS1 INHIBITORS” (Mirati Therapeutics, Inc., priority 2021, published 2025)
Structures can show the parent of a compound that is named as a salt. Where two headings read alike, the source gives them in different places.

What was measured:
[1] = system: pERK in MKN1 cells; assay: pERK inhibition, In-Cell Western (LI-COR Odyssey), MKN1 cells; format: cell-based; conditions: Homo sapiens
Procedure: This Example illustrates that exemplary compounds of the present invention prevent KRas-mediated GTP nucleotide exchange mediated by SOS1 to inhibit KRas activity thereby inhibiting the generation of the downstream effector pERK.
MKN1 cells (15,000/w) or H358 (30,000/w) were seeded in a black clear flat bottom 96-well cell culture plate (Corning, #3904) and incubated at 37° C. overnight. Assay day 1, cells were dosed with compounds of Formula (I) with a 10 μm starting concentration and serially diluted 3× for a total of 9 concentrations. The cells were incubated for approximately 0.5-1 hour with the compounds solubilized in DMSO at 37° C. Cells were immediately fixed by adding 50 μL of 4% formaldehyde to all wells in a fume hood and the plates were incubated for 20 minutes at room temperature. The formaldehyde was discarded from the plates and 150 μL of ice-cold methanol was added to permeabilize the cells for 10 minutes at −20° C. The methanol was discarded from each of the plates and any liquid remaining in the plate by tapping the plate against paper towels. Cells were then blocked with 150 μL of Odyssey blocking buffer (LI-COR Biosciences #927-50010) using 0.05% Tween for 1 hour at room temperature on a shaker. The blocking buffer was discarded and 50 μL of primary antibodies pERK (cell signaling Technology #9101L; Rabbit, 1:500) and GapDH (Millipore #MAB34; Mouse, 1:5000) diluted in Odyssey blocking buffer was added. The plates were incubated overnight at 4° C. on a shaker.
On Assay day 2, the primary antibody solution was removed. Each plate was washed 3× times with 150 μL of 1×PBST (PBS+0.1% Tween 20) and incubated with 50 μL of secondary antibodies: Anti-Rabbit (LI-COR Biosciences #926-32211) and Anti-Mouse (LI-COR Biosciences #68070) at 1:800 dilution in Odyssey blocking buffer with Tween at room temperature on a shaker for 2 hours (protected from light). The secondary antibody solution as removed and each plate was washed with PBST 3× times. Any liquid remaining was discarded and the plate was imaged using the Licor Odyssey machine according to the manufacturer's instruction, using a set focus length at 3 mm and both 800 nm and 700 nm filters. The GAPDH normalized scan values for each well were divided by the average of vehicle wells to get the % of pERK inhibition. The IC50 values were then calculated with the Graph pad Prism software.

[2] = target: T1, recombinant human SOS1 polypeptide (amino acids 560-1049) (Homo sapiens, UniProt Q07889); assay: HTRF displacement assay: inhibition of labeled tracer binding to SOS1
T1 construct: corresponding to amino acids 560-1049, expressed in E. Coli; made in house; host or cells: E. coli
T1 sequence (Q07889 560-1049): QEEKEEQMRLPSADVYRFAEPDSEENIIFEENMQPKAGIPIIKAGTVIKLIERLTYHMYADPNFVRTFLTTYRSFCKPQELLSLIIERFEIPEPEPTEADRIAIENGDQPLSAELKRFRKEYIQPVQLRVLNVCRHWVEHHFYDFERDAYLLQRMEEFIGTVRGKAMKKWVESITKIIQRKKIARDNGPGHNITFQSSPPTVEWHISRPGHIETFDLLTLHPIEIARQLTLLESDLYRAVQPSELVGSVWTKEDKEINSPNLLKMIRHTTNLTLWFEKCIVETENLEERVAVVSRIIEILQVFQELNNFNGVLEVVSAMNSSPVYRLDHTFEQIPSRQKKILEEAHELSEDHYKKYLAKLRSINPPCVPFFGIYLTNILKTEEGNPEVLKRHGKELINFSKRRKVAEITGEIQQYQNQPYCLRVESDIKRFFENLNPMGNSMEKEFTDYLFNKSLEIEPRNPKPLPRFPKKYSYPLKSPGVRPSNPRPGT
Procedure: The ability of a compound of Formula (I) to bind to SOS1 was measured using a HTRF displacement assay. […] After a 1-hour incubation at room temperature, the HTRF signal was measured using Clairostar plate reader (BMG Labtech) according to the manufacturer's instructions. Excitation filter EX-TR was used, and emission 1 was detected at 650-610 nm and emission 2 detected at 620-610 nm. The HTRF ratio was calculated using the formula: [emission 1/emission 2]*10000.
Background signals were calculated from well with a 10 μM inhibitor, known to inhibit 100% at that concentration. The background subtracted signals were converted to % binding relative to DMSO controls. Data were analyzed using XLFIT software (IDBS) using a Morrison equation for competitive binding and Ki's were generated compound of Formula (I).

[3] = MKN-1, Table B, MKN1 or H358 cells (table does not say which), 0.5-1 hour incubation, read-out: IC50 (nM), pERK inhibition
[4] = Table A, Morrison equation for competitive binding
[5] = MKN-1, Table B1, MKN1 or H358 cells (table does not say which), 0.5-1 hour incubation, read-out: IC50 (nM), pERK inhibition
[6] = Table A1, Morrison equation for competitive binding

Structure (SMILES)	IC50 [1, 3] [nM]	Ki [2, 4] [nM]	IC50 [1, 5] [nM]	Ki [2, 6] [nM]	IC50 ([1]; MKN-1, read-out: IC50 (nM), pERK inhibition) [nM]
Cc1nnc(N[C@H](C)c2cccc(C(F)(F)F)c2F)c2cc(N(C)[C@H]3CCCN(C)C3)ncc12 [Example 1-85, N^1-((R)-1-(2-fluoro-3-(trifluoromethyl)phenyl)ethyl)-N^7,4-dimethyl-N^7-((S)-1-methylpiperidin-3-yl)pyrido[3,4-d]pyridazine-1,7-diamine]	185	0.662			
Cc1c(C#N)cccc1[C@@H](C)Nc1nnc(C)c2cnc(N3CC[C@H]4[C@@H]3CN4C)cc12 (single isomer, unassigned) [Example 6-11]	199	2.78			
Cc1c(C#N)cccc1[C@@H](C)Nc1nnc(C)c2cc(F)c(N(C)[C@H]3CCN(C)C3)cc12 [Example P-179, 3-((R)-1-((6-fluoro-4-methyl-7-(methyl((S)-1-methylpyrrolidin-3-yl)amino)phthalazin-1-yl)amino)ethyl)-2-methylbenzonitrile]			84.7	0.714	
Cc1nnc(N[C@H](C)c2cccc(C(C)(F)F)c2F)c2cc(N3CCOCC3)ncc12 [Example P-169, (R)-N-(1-(3-(1,1-difluoroethyl)-2-fluorophenyl)ethyl)-4-methyl-7-morpholinopyrido[3,4-d]pyridazin-1-amine]			71.4	0.827	
Cc1c(C#N)cccc1[C@@H](C)Nc1nnc(C)c2cnc(N(C)[C@@H]3CCCN(C)C3)cc12 [Example 1-82, 2-methyl-3-((R)-1-((4-methyl-7-(methyl((R)-1-methylpiperidin-3-yl)amino)pyrido[3,4-d]pyridazin-1-yl)amino)ethyl)benzonitrile]	85.2	1.16			
Cc1nnc(N[C@H](C)c2cccc(C(F)F)c2F)c2cc(N3CCC34COC4)ncc12 [Example P-233, (R)-N-(1-(3-(difluoromethyl)-2-fluorophenyl)ethyl)-4-methyl-7-(6-oxa-1-azaspiro[3.3]heptan-1-yl)pyrido[3,4-d]pyridazin-1-amine]			18.8	2.75	
Cc1c(C#N)cccc1[C@@H](C)Nc1nnc(C)c2cnc(N3CC4(CNC4)C3)cc12 [Example 1-10, (R)-2-methyl-3-(1-((4-methyl-7-(2,6-diazaspiro[3.3]heptan-2-yl)pyrido[3,4-d]pyridazin-1-yl)amino)ethyl)benzonitrile]	3280	0.541			
Cc1c(C#N)cccc1[C@@H](C)Nc1nnc(C)c2cnc(N(C)[C@@H]3CCOC3)cc12 [Example 1-74, 2-methyl-3-((R)-1-((4-methyl-7-(methyl((R)-tetrahydrofuran-3-yl)amino)pyrido[3,4-d]pyridazin-1-yl)amino)ethyl)benzonitrile]	39.9	2.34			
Cc1c(C#N)cccc1[C@@H](C)Nc1nnc(C)c2cnc(N3CCN(C)[C@@H](C)C3)cc12 [Example 1-11, 3-((R)-1-((7-((S)-3,4-dimethylpiperazin-1-yl)-4-methylpyrido[3,4-d]pyridazin-1-yl)amino)ethyl)-2-methylbenzonitrile]	72.5	1.62			
Cc1c(C#N)cccc1[C@@H](C)Nc1nnc(N2CC[C@@H](N(C)C)C2)c2cnc(N3C[C@H]4C[C@@H]3CO4)cc12 [Example 5-2, 3-((R)-1-((7-((1R, 4R)-2-oxa-5-azabicyclo[2.2.1]heptan-5-yl)-4-((R)-3-(dimethylamino)pyrrolidin-1-yl)pyrido[3,4-d]pyridazin-1-yl)amino)ethyl)-2-methylbenzonitrile]	115	0.973			
Cc1c(C#N)cccc1[C@@H](C)Nc1nnc(C)c2cnc(N3CCOCC34CN(C)C4)cc12 [Example P-211, (R)-2-methyl-3-(1-((4-methyl-7-(2-methyl-8-oxa-2,5-diazaspiro[3.5]nonan-5-yl)pyrido[3,4-d]pyridazin-1-yl)amino)ethyl)benzonitrile]			503	13.4	
Cc1c(C#N)cccc1[C@@H](C)Nc1nnc(C)c2cnc(N3C[C@@H]4CCCN(C)[C@@H]4C3)cc12 (single isomer, unassigned) [Example 6-6]	80.6	1.36			
Cc1c(C#N)cccc1[C@@H](C)Nc1nnc(C)c2cnc(N3C[C@@H]4CCCN[C@@H]4C3)cc12 (single isomer, unassigned) [Example 6-4]	194	2.74			
COC1(c2cc3c(N[C@H](C)c4cccc(C#N)c4C)nnc(C)c3cn2)CCN(C)CC1 [Example P-69, (R)-3-(1-((7-(4-methoxy-1-methylpiperidin-4-yl)-4-methylpyrido[3,4-d]pyridazin-1-yl)amino)ethyl)-2-methylbenzonitrile]			849	51.8	
Cc1c(C#N)cccc1[C@@H](C)Nc1nnc(C)c2cnc(N3CCN(C(=O)[C@@H]4CCN(C)C4)CC3)cc12 [Example 2-5, 2-methyl-3-((R)-1-((4-methyl-7-(4-((R)-1-methylpyrrolidine-3-carbonyl)piperazin-1-yl)pyrido[3,4-d]pyridazin-1-yl)amino)ethyl)benzonitrile]	1050	0.743			
COC1(C)CCN(c2cc3c(N[C@H](C)c4cccc(C#N)c4C)nnc(C)c3cn2)CC1 [Example P-9, (R)-3-(1-((7-(4-methoxy-4-methylpiperidin-1-yl)-4-methylpyrido[3,4-d]pyridazin-1-yl)amino)ethyl)-2-methylbenzonitrile, formic acid salt]				0.989	90.2
CCN1CC[C@@H](Nc2cc3c(N[C@H](C)c4cccc(C#N)c4C)nnc(C)c3cn2)C1 [Example 1-39, 3-((R)-1-((7-(((R)-1-ethylpyrrolidin-3-yl)amino)-4-methylpyrido[3,4-d]pyridazin-1-yl)amino)ethyl)-2-methylbenzonitrile]	126	4			
Cc1c([C@@H](C)Nc2nnc(C)c3cnc(N4CC5(COC5)C4)cc23)cc(N)nc1C(F)(F)F [Example 1-107, (R)-N-(1-(6-amino-3-methyl-2-(trifluoromethyl)pyridin-4-yl)ethyl)-4-methyl-7-(2-oxa-6-azaspiro[3.3]heptan-6-yl)pyrido[3,4-d]pyridazin-1-amine]	239	22.5			
COC1(c2cc3c(N[C@H](C)c4cccc(C#N)c4C)nnc(C)c3cn2)CCN(C(C)=O)CC1 [Example P-75, (R)-3-(1-((7-(1-acetyl-4-methoxypiperidin-4-yl)-4-methylpyrido[3,4-d]pyridazin-1-yl)amino)ethyl)-2-methylbenzonitrile]			568	17.6	
Cc1nnc(N[C@H](C)c2cccc(C(F)(F)F)c2F)c2cc(N3CC4(COC4)C3)c(F)cc12 [Example 4-10, (R)-6-fluoro-N-(1-(2-fluoro-3-(trifluoromethyl)phenyl)ethyl)-4-methyl-7-(2-oxa-6-azaspiro[3.3]heptan-6-yl)phthalazin-1-amine]	141	2.4			
Cc1c(C#N)cccc1[C@@H](C)Nc1nnc(C)c2cc(C#N)c(N3CCN(C)CC3)cc12 [Example 6-19, (R)-1-((1-(3-cyano-2-methylphenyl)ethyl)amino)-4-methyl-7-(4-methylpiperazin-1-yl)phthalazine-6-carbonitrile]	222	2.94			
Cc1c(C#N)cccc1[C@@H](C)Nc1nnc(C)c2cnc(N(C)C3CCN(C)CC3)cc12 [Example 1-40, (R)-2-methyl-3-(1-((4-methyl-7-(methyl(1-methylpiperidin-4-yl)amino)pyrido[3,4-d]pyridazin-1-yl)amino)ethyl)benzonitrile]	45.4	0.805			
